Results as given in ChEMBL document CHEMBL5212743, “Selectivity Literature for EUbOPEN Chemogenomics Library wave 3” (2023).

Legend:
[1] = target: Histone-lysine N-methyltransferase NSD2 (Homo sapiens) (UniProt O96028); test: Selectivity interaction (Epigenetic methyltransferases panel) EUB0000193b NSD2; settings: Inactive against protein arginine methyltransferases,, at 10 µM
[2] = target: T1, Adenosine receptor A1 (Homo sapiens) (UniProt P30542); test: (§1) Selectivity interaction (CEREP panel (GPCRS, ion channels, transporters)) EUB0000193b ADORA1; settings: Inactive against protein arginine methyltransferases,, at 10 µM
T1 sequence (whole entry): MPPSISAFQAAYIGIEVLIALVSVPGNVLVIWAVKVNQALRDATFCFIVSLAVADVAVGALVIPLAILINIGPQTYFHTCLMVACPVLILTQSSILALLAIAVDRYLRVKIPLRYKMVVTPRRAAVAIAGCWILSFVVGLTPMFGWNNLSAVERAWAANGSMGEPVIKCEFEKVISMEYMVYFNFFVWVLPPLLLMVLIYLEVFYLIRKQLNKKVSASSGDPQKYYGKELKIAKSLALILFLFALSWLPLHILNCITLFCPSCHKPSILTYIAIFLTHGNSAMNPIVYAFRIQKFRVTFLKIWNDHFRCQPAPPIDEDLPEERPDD

[3] = target: Adenosine receptor A2a (Homo sapiens) (UniProt P29274); test: Selectivity interaction (CEREP panel (GPCRS, ion channels, transporters)) EUB0000193b ADORA2A; settings: Inactive against protein arginine methyltransferases,, at 10 µM
Adenosine receptor A2a (Homo sapiens), sequence (P29274 whole entry): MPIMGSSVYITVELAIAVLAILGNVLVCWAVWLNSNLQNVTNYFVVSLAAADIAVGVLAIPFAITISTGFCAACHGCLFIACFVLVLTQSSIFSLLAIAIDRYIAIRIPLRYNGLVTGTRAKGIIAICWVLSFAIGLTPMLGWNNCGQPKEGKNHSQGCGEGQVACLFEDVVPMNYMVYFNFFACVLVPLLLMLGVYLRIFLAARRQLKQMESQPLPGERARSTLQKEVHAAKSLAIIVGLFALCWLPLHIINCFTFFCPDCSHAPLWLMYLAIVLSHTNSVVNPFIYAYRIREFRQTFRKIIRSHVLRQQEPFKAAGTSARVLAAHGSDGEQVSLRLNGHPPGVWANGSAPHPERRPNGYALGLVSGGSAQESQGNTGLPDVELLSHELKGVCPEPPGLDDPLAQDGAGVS

[4] = target: Delta-type opioid receptor (Homo sapiens) (UniProt P41143); test: Selectivity interaction (CEREP panel (GPCRS, ion channels, transporters)) EUB0000193b OPRD1; settings: Inactive against protein arginine methyltransferases,, at 10 µM
Delta-type opioid receptor (Homo sapiens), sequence (P41143 whole entry): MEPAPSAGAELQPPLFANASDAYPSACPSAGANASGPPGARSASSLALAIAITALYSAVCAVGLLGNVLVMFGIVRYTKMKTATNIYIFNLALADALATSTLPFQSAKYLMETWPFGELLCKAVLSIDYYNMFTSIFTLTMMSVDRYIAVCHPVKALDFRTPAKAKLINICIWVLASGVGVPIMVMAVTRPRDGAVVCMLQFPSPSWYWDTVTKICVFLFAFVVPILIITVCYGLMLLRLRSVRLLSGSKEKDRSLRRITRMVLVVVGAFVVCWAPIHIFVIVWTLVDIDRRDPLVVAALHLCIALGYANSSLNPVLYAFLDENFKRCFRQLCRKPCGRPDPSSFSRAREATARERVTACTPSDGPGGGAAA

[5] = target: Kappa-type opioid receptor (Homo sapiens, UniProt P41145); test: Selectivity interaction (CEREP panel (GPCRS, ion channels, transporters)) EUB0000193b OPRK1; settings: Inactive against protein arginine methyltransferases,, at 10 µM
Kappa-type opioid receptor, sequence (P41145 whole entry): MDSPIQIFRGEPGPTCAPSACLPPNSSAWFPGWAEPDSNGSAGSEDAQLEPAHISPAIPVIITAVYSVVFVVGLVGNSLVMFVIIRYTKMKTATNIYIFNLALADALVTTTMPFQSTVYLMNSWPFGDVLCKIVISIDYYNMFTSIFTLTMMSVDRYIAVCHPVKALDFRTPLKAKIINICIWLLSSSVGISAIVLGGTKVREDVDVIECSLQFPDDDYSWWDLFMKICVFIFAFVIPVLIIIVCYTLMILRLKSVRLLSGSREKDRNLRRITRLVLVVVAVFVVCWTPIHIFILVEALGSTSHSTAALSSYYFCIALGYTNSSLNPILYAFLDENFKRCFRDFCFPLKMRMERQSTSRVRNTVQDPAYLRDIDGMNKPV

[6] = target: T2, Gamma-aminobutyric acid receptor subunit alpha-1 (Homo sapiens) (UniProt P14867); test: (§2) Selectivity interaction (CEREP panel (GPCRS, ion channels, transporters)) EUB0000193b GABRA1; settings: Inactive against protein arginine methyltransferases,, at 10 µM
T2 sequence (whole entry): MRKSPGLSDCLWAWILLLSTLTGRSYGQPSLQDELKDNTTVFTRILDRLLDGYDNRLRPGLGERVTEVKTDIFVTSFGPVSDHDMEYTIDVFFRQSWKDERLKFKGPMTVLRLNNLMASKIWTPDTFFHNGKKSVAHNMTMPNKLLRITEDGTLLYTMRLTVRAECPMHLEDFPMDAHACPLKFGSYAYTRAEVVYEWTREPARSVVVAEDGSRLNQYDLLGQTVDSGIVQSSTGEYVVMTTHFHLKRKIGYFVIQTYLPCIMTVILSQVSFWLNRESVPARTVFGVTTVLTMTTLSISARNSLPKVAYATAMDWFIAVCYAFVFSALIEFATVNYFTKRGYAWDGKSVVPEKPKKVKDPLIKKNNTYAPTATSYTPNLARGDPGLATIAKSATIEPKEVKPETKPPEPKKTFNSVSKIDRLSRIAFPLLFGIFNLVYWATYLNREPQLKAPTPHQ

[7] = target: T3, Gamma-aminobutyric acid receptor subunit alpha-1 (Homo sapiens, UniProt P14867); test: as §2
T3 sequence (P14867 whole entry): T2 sequence (whole entry)

Adenosine receptor A1 = Adenosine receptor A1 (Homo sapiens, UniProt P30542); test: as §1
[8] = target: Substance-K receptor (Homo sapiens) (UniProt P21452); test: Selectivity interaction (CEREP panel (GPCRS, ion channels, transporters)) EUB0000193b TACR2; settings: Inactive against protein arginine methyltransferases,, at 10 µM
Substance-K receptor (Homo sapiens), sequence (P21452 whole entry): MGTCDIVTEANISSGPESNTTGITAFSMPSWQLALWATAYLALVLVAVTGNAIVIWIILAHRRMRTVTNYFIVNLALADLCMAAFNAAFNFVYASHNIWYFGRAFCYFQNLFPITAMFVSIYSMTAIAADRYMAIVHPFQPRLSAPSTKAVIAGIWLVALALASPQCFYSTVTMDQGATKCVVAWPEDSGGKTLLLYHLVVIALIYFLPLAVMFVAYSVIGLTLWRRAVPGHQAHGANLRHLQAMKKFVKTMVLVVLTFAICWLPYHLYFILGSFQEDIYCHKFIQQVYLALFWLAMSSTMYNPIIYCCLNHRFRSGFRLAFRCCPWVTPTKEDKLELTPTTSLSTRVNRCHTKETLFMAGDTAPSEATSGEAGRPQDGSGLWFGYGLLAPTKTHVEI

[9] = target: T4, Adenosine receptor A3 (Homo sapiens) (UniProt P0DMS8); test: Selectivity interaction (CEREP panel (GPCRS, ion channels, transporters)) EUB0000193b ADORA3; settings: Inactive against protein arginine methyltransferases,, at 10 µM
T4 sequence (whole entry): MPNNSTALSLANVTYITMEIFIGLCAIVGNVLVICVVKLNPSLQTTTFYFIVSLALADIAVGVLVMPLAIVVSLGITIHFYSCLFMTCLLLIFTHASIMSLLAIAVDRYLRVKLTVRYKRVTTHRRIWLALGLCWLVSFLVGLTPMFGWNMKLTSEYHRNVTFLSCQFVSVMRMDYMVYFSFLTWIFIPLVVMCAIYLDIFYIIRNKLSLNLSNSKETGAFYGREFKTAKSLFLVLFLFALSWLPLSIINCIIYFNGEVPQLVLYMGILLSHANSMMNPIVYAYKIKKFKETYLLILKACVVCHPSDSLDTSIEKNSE

Histone-lysine N-methyltransferase NSD2 (Homo sapiens), sequence (O96028 whole entry): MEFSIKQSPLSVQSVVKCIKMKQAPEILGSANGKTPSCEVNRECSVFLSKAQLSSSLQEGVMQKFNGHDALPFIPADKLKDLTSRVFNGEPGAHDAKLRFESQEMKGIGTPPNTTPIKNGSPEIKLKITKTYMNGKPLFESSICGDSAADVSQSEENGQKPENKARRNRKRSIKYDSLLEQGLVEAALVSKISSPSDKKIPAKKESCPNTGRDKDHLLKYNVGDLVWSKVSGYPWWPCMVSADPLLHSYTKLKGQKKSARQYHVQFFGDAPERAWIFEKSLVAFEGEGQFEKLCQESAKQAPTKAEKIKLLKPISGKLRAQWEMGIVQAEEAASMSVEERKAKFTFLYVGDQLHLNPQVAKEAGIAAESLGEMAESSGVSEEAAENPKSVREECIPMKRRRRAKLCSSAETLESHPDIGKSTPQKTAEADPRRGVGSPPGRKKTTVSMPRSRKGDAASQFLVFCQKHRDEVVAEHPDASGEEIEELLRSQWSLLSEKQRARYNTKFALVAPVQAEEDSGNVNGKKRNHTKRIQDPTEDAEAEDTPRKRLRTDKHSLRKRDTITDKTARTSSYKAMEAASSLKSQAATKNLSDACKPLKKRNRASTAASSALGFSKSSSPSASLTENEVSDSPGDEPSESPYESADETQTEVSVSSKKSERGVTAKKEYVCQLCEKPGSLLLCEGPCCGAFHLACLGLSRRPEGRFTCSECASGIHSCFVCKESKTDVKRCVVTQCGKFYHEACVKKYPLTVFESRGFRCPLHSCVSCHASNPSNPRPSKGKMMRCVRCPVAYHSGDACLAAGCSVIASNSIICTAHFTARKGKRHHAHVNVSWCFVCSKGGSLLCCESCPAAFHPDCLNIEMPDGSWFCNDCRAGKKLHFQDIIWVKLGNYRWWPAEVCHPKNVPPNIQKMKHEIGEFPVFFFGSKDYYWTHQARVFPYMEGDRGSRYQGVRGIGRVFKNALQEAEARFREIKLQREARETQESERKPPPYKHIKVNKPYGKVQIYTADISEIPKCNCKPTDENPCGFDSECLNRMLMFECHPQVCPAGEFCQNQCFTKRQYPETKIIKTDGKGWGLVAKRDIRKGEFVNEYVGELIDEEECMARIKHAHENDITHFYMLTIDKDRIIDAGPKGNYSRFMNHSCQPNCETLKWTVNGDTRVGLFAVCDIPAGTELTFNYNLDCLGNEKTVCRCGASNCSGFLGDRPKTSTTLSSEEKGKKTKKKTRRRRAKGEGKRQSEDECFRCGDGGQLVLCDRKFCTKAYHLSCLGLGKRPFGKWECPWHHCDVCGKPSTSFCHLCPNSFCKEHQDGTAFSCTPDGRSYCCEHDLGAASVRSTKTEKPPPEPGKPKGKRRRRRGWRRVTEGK

% of activity remaining [1]: 90% | % of inhibition [2]: 98% | % of inhibition [3]: 98% | % of inhibition [4]: 51% | % of inhibition [5]: 62% | % of inhibition [6]: 90% | Ki [7]: 1800 nM | Ki (Adenosine receptor A1): 12 nM | % of inhibition [8]: 61% | % of inhibition [9]: 74%
SMILES: Clc1cc2c(NC3CCCC3)nnc(-c3ccncc3)c2cc1Cl
